US11834392B2, “KDM4B inhibitors for the treatment of inflammatory diseases and disorders” (MUSC FOUNDATION FOR RESEARCH DEVELOPMENT, priority 2019, dated 2023)
“Also recorded” adds a separate entry of the source.

Legend:
[1] = test system: bone marrow derived macrophages (BMDMs); assay: In vitro periodontal disease inflammation model (IL-6 ELISA after A.a LPS challenge); type: cell-based, C57BL/6 mice; details: for immunosuppressive action (pro-inflammatory cytokine response to A.a LPS): murine macrophages, A.a LPS challenge
H3K9me3 = H3K9me3 staining to confirm KDM4B inhibitory activity; type: cell-based
KDM4B = molecular target: T1, KDM4B (Homo sapiens, UniProt O94953); assay: KDM4B inhibition; type: biochemical
T1 sequence (O94953 1-1096): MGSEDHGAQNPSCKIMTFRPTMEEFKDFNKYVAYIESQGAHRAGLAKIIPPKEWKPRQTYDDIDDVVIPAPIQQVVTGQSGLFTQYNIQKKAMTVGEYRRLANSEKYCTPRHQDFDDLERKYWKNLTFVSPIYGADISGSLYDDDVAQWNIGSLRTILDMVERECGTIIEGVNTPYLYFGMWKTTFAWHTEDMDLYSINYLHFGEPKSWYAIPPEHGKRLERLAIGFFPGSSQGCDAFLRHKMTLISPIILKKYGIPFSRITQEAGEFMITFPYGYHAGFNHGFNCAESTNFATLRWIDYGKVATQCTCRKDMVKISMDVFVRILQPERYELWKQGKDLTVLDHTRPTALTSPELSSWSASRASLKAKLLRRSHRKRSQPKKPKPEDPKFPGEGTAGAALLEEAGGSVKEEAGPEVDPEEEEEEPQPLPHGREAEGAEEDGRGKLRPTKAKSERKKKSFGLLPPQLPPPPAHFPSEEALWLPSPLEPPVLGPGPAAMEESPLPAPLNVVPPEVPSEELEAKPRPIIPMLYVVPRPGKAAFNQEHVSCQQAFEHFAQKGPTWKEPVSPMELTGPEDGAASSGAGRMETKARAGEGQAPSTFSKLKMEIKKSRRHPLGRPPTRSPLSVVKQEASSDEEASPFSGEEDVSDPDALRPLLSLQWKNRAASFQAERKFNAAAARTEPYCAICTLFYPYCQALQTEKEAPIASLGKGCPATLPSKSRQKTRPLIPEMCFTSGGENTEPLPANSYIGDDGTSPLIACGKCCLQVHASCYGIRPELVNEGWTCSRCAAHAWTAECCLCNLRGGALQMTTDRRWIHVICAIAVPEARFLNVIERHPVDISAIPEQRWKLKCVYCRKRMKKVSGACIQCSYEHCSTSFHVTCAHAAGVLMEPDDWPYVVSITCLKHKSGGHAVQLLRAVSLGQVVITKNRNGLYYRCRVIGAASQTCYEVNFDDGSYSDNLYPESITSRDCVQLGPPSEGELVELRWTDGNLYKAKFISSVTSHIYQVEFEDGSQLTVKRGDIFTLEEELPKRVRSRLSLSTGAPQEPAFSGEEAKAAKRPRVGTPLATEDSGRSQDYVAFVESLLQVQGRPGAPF

H3K4me = assay: Global H3K4me levels in fluorescence-stained macrophages after Aa-LPS challenge; type: cell-based
Excerpt: (§1) As such, KDM4B represents a new therapeutic target for treating hyper-inflammatory diseases that result in, for example, bone destruction.

osteoclast progenitors = assay: Aa-LPS-induced osteoclastogenesis; type: cell-based
Excerpt: as §1

Primary BMDMs [2] = assay: IL-10 expression by qRT-PCR in BMDMs; type: cell-based; details: 50 μM 1 hour pre-treatment, A.a LPS 100 ng/mL, 24 hours
Experimental: Primary BMDMs were isolated and differentiated as previously described and were pre-treated with ML324 at 50 μM for 1 hour followed by A.a LPS (100 ng/mL). […] (FIG. 5D)

Primary BMDMs [3] = assay: Extracellular flux analysis (seahorse XFe96); type: cell-based
Experimental: (§2) Primary BMDMs were isolated and differentiated as previously described and were pre-treated with ML324 at 50 uM for 1 hour followed by A.a LPS (100 ng/mL). 24 hours later, extracellular flux was analyzed using a seahorse XFe96 instrument and following metabolic analysis, cells were incubated with phalloidin 488 and DAPI. Representative images were acquired using the Hermes […] system at 10× for morphological analysis. N=4. […] Primary BMDMs were isolated and differentiated as previously described and were pre-treated with ML324 at 50 μM for 1 hour followed by A.a LPS (100 ng/mL). […] (FIG. 5D)

Primary BMDMs [4] = assay: Macrophage morphology / polarization (phalloidin 488 and DAPI staining); type: cell-based; details: 50 μM 1 hour pre-treatment, A.a LPS 100 ng/mL, 24 hours
Experimental: as §2

Solubility = type: physicochemical; details: at effective doses
KDM4E = molecular target: T2, KDM4E (Homo sapiens, UniProt B2RXH2); details: in vitro; cited from earlier work
T2 sequence (B2RXH2 1-506): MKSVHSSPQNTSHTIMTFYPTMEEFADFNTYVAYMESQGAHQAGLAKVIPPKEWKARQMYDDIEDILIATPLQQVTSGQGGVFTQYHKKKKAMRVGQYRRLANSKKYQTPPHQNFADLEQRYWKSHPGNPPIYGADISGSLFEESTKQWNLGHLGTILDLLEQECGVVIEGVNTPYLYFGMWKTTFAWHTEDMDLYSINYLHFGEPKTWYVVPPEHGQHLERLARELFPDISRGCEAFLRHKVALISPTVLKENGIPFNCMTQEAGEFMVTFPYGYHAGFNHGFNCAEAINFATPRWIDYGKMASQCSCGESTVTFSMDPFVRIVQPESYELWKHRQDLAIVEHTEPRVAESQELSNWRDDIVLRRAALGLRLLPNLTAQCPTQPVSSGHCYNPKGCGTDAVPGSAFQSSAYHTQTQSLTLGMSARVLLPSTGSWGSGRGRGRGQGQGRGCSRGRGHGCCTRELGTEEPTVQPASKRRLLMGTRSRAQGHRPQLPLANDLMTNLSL

herpes simplex virus = details: mice, high doses; cited from earlier work
cytomegalovirus = details: mice, high doses; cited from earlier work
[5] = cited from earlier work

Q: With `O=C(Nc1ccccc1C(=O)O)c1ccc(-c2ccccc2)cc1` [Compound 12, 2-([1,1′-biphenyl]-4-carboxamido)benzoic acid] as the compound, how does the “dose-dependent immunosuppressive response to A.a LPS” value [1] read?
A: Its value is “dose-dependent immunosuppressive response; also recorded: dose-dependent immunosuppressive effect”.

Q: What about the “H3K9me3 expression / staining” value (H3K9me3) of the same compound?
A: The value was “concurrent increase in H3K9me3; also recorded: increase in H3K9me3 staining”.

Q: Which results are given for `CN(C)CCCNC(=O)c1ccc(-c2cc(O)c3ncccc3c2)cc1` [ML324]?
A: IC50 (KDM4B): 4.9 µM; activity toward KDM4B (KDM4B): active; immunosuppressive action (pro-inflammatory cytokine response to A.a LPS) [1]: decreases the pro-inflammatory cytokine response; immunosuppressive action (pro-inflammatory cytokine response to A.a LPS) ([1]; listed as 1): immunosuppressive action; global H3K4me levels following Aa-LPS challenge (H3K4me): prevented by KDM4B inhibition; Aa-LPS-induced osteoclastogenesis (osteoclast progenitors): significant reduction; IL-10 expression (mRNA) (Primary BMDMs [2]): significantly higher IL-10 expression; glycolytic activity of LPS treated cells (Primary BMDMs [3]; 50 μM 1 hour pre-treatment, A.a LPS 100 ng/mL, 24 hours): rescued this effect; spare respiratory capacity (Primary BMDMs [3]; LPS with or without ML324, compared to PBS control): reduced spare respiratory capacity; macrophage morphology / polarization (M1 phenotype) (Primary BMDMs [4]): alters macrophage polarization; also recorded: able to rescue this effect; solubility (Solubility): highly insoluble at effective doses; inhibition of KDM4E (KDM4E): known to inhibit; viral replication of herpes simplex virus (herpes simplex virus): shown to inhibit viral replication; viral replication of cytomegalovirus (cytomegalovirus): shown to inhibit viral replication; cell permeability [5]: good cell permeability
